Assay results published in article PMC6024615, “Effect of Biliary Drainage on the Toxicity and Toxicokinetics of Amanita exitialis in Beagles” (Toxins, 2018).
Like-named read-outs stand apart in the source and are kept apart here.

What was measured:
[1] = Peptide toxins in the bile of beagles with biliary drainage; assay type: in vivo, beagle dogs; conditions: for Accumulated amounts excreted in bile / percentage of total bile excretion, Accumulated amounts: 0–4 days; for ratio of peptide toxins in bile to excretion in urine and bile: mean ± SD
Protocol: The study was approved by National Institute of Occupational Health and Poison Control review board for animal experiments. Twenty-four male beagles (age, 8–10 months; weight, 10 ± 1 kg) were obtained from Beijing Institute of Xieerxin Biology Resource (Beijing, China). They were randomly divided into four groups of six animals each: control, biliary drainage, and 20 and 60 mg/kg with biliary drainage groups. The biliary drainage operation was conducted in all groups barring the control group. The dogs were dressed in homemade underwear, coats, and Elizabeth circles for a week to ensure pre-experimental acclimatization (Figure S8a–c). After determining the baseline values for biochemical indicators, the dogs were fasted for 24 h but received water ad libitum. They were anesthetized by intravenous administration of pentobarbital sodium (3%, 1 mL/kg) during the surgery. A temperature of 38–39 °C was maintained with a warming mat. After skin preservation and sterilization, the abdominal cavity was opened through the central abdomen. The abdomen was explored and blunt dissection of the common bile duct was performed (Figure S8d). The common bile duct and its branches were ligated from the intestinal side. A 7.0-Fr drainage catheter (COOK, Bloomington, IN, USA) was percutaneously inserted into the gallbladder, and a medical drainage bag was connected to the drainage catheter coming out of the abdominal cavity. Each opened layer, including the peritoneum, abdominal wall muscle, and skin, was closed with suture. The operative incision was protected with sterile gauze and a bandage, and the dogs were dressed in homemade underwear, coats, and Elizabeth circles. The drainage bag was placed in the pocket of the coat (Figure S8e). After the anesthetic wore off, the dogs were placed in cages, and food and water were provided ad libitum. The operative incision was sterilized with iodophor twice a day until stitches were removed six days after surgery. The drainage bag was replaced every day. On the eighth day after surgery, the 20 and 60 mg/kg with biliary drainage groups were orally administered a lyophilized powder of Amanita exitialis in starch capsules. In control and bile drainage group, the beagle dogs were fed with empty capsules. Immediately after dosing, the animals were placed in their cages, and food and water were provided ad libitum. Dogs were sacrificed with an overdose of sodium pentobarbital at the end of the experiment. All procedures were performed according to the ethical standards of the National Institutes of Health Guide for Animal Welfare and approved by the Institutional Animal Care and Use Committee (EAWE-2017-005).
Peptide toxins in blood and urine samples were analyzed as described previously. Bile samples from Days 0–1, Days 1–2, Days 2–3, and Days 3–4 were collected and stored in medical drainage bags and the bile volume was recorded. Plasma and urine samples were stored at 2–8 °C until analysis for peptide toxins.
α-Amanitin, β-amanitin, γ-amanitin, and phallacidin were used as the standard reference materials. Aliquots (0.2 mL) of bile samples were transferred into 2-mL polypropylene centrifuge tubes in duplicates. Next, 1 mL of acetonitrile was added to each tube. After vortex-mixing for 1 min, each sample was sonicated for 30 min and centrifuged at 11,200× g for 10 min at 4 °C. The supernatants were loaded on solid-phase extraction columns (Oasis PRiME HLB, 60 mg, 3 cc). The columns were then washed with 3 mL of methanol/ultrapure water (v/v: 5/95). The eluent was evaporated in a stream of nitrogen at room temperature. The dry residue was dissolved in 0.2 mL of ultrapure water and analyzed by UPLC-ESI-MS/MS.
UPLC and MS/MS parameters were as described in our previous study. The limit of detection and limit of quantitation of each toxin in the bile were 0.03 mg/kg and 0.5 mg/kg, respectively.

[2] = cited from earlier work
Protocol: The difference in detectable time in the urine can be explained by the low level of internal exposure (amatoxins in the blood). […] The daily amounts of peptide toxins excreted in urine in beagles without biliary drainage(mg). Time after α-Amanitin β-Amanitin Phallacidin ingestion 20 mg/kg 60 mg/kg 20 mg/kg 60 mg/kg 20 mg/kg 60 mg/kg group group group group group group 0-1d 0.0379 0.0593 0.0156 0.0251 0.0035 0.0088 (97.9%) (92.8%) (99.9%) (94.7%) (94.2%) (76%) 1-2d 0.0388 0.0618 0.01567 0.0255 0.0037 0.0110 (99.995%) (97.5%) (100%) (96.2%) (100%) (93%) 2-3d 0.0002 0.0626 0 0.0260 0 0.0115 (100%) (99.4%) (100%) (98.2%) (100%) (97.3%) 3-4d 0 0.063 ...

[3] = 0–1 days, 20 mg/kg with biliary drainage group
[4] = 0–1 days, 60 mg/kg with biliary drainage group
[5] = 20 mg/kg with biliary drainage group
[6] = 60 mg/kg with biliary drainage group
[7] = 1-2 d, 20 mg/kg with biliary drainage group
[8] = 1-2 d, 60 mg/kg with biliary drainage group
[9] = 1–2 days, 20 mg/kg with biliary drainage group
[10] = 1–2 days, 60 mg/kg with biliary drainage group
[11] = 2-3 d, 20 mg/kg with biliary drainage group
[12] = 2-3 d, 60 mg/kg with biliary drainage group
[13] = 2–3 days, 20 mg/kg with biliary drainage group
[14] = 2–3 days, 60 mg/kg with biliary drainage group
[15] = 3-4d, 20 mg/kg with biliary drainage group
[16] = 3-4d, 60 mg/kg with biliary drainage group
[17] = 3–4 days, 20 mg/kg with biliary drainage group
[18] = 3–4 days, 60 mg/kg with biliary drainage group

CC[C@H](C)[C@@H]1NC(=O)CNC(=O)[C@@H]2Cc3c([nH]c4cc(O)ccc34)[S@+]([O-])C[C@H](NC(=O)CNC1=O)C(=O)N[C@@H](CC(=O)O)C(=O)N1C[C@H](O)C[C@H]1C(=O)N[C@@H]([C@@H](C)[C@@H](O)CO)C(=O)N2 [β-amanitin]
detection rate of peptide toxins in bile ([1]; 0-1 d, 20 mg/kg with biliary drainage group): 50%
detection rate of peptide toxins in bile ([1]; 0-1 d, 60 mg/kg with biliary drainage group): 83%
daily amount excreted in bile [1, 3]: 0.00014 mg
percentage of total bile excretion excreted daily [1, 3]: 100%
daily amount excreted in bile [1, 4]: 0.00122 mg
percentage of total bile excretion excreted daily [1, 4]: 100%
Accumulated amounts excreted in bile [1, 5]: 0.00014 mg
percentage of total bile excretion, Accumulated amounts [1, 5]: 100%
percentage of total bile excretion, Accumulated amounts [1, 6]: 100%
Accumulated amounts excreted in bile ([1]; 60 mg/kg with biliary drainage group, 60 mg/kg): 0.0012 mg
Accumulated amounts excreted in bile ([1]; 60 mg/kg with biliary drainage group, listed as β-Amanitin, 60 mg/kg): 0.00122 mg
ratio of peptide toxins in bile to excretion in urine and bile [1, 5]: less than 10%
ratio of peptide toxins in bile to excretion in urine and bile ([1]; 20 mg/kg with biliary drainage group, listed as β-Amanitin): 5.7 ± 8.5%
ratio of peptide toxins in bile to excretion in urine and bile [1, 6]: less than 20%
ratio of peptide toxins in bile to excretion in urine and bile ([1]; 60 mg/kg with biliary drainage group, listed as β-Amanitin): 15.4 ± 10.6%
detection rate of peptide toxins in bile [1, 7]: 0%
toxin concentration in bile [1, 7]: 0 µg/L
detection rate of peptide toxins in bile [1, 8]: 0%
toxin concentration in bile [1, 8]: 0 µg/L
daily amount excreted in bile [1, 9]: 0(0%) mg
percentage of total bile excretion excreted daily [1, 9]: 0(0%)
daily amount excreted in bile [1, 10]: 0(0%) mg
percentage of total bile excretion excreted daily [1, 10]: 0(0%)
detection rate of peptide toxins in bile [1, 11]: 0%
toxin concentration in bile [1, 11]: 0 µg/L
detection rate of peptide toxins in bile [1, 12]: 0%
toxin concentration in bile [1, 12]: 0 µg/L
daily amount excreted in bile [1, 13]: 0(0%) mg
percentage of total bile excretion excreted daily [1, 13]: 0(0%)
daily amount excreted in bile [1, 14]: 0(0%) mg
percentage of total bile excretion excreted daily [1, 14]: 0(0%)
detection rate of peptide toxins in bile [1, 15]: 0%
toxin concentration in bile [1, 15]: 0 µg/L
detection rate of peptide toxins in bile [1, 16]: 0%
toxin concentration in bile [1, 16]: 0 µg/L
daily amount excreted in bile [1, 17]: 0(0%) mg
percentage of total bile excretion excreted daily [1, 17]: 0(0%)
daily amount excreted in bile [1, 18]: 0(0%) mg
percentage of total bile excretion excreted daily [1, 18]: 0(0%)
daily amount excreted in urine, without biliary drainage ([2]; 0-1d, 20 mg/kg group): 0.0156 mg
percentage in parentheses, urine, without biliary drainage ([2]; 0-1d, 20 mg/kg group): 99.9%
daily amount excreted in urine, without biliary drainage ([2]; 0-1d, 60 mg/kg group): 0.0251 mg
percentage in parentheses, urine, without biliary drainage ([2]; 0-1d, 60 mg/kg group): 94.7%
Accumulative amount excreted in urine, without biliary drainage ([2]; 20 mg/kg group): 0.0157 mg
percentage in parentheses, Accumulative amount, urine, without biliary drainage ([2]; 20 mg/kg group): 100%
Accumulative amount excreted in urine, without biliary drainage ([2]; 20 mg/kg group, listed as β-Amanitin): 0.01567 mg
percentage in parentheses, Accumulative amount, urine, without biliary drainage ([2]; 60 mg/kg group): 100%
percentage in parentheses, urine, without biliary drainage ([2]; 1-2d, 20 mg/kg group): 100%
daily amount excreted in urine, without biliary drainage ([2]; 1-2d, 60 mg/kg group): 0.0255 mg
percentage in parentheses, urine, without biliary drainage ([2]; 1-2d, 60 mg/kg group): 96.2%
daily amount excreted in urine, without biliary drainage ([2]; 2-3d, 20 mg/kg group): 0 mg
percentage in parentheses, urine, without biliary drainage ([2]; 2-3d, 20 mg/kg group): 100%
daily amount excreted in urine, without biliary drainage ([2]; 2-3d, 60 mg/kg group): 0.0260 mg
percentage in parentheses, urine, without biliary drainage ([2]; 2-3d, 60 mg/kg group): 98.2%
daily amount excreted in urine, without biliary drainage ([2]; 3-4d, 20 mg/kg group): 0 mg
percentage in parentheses, urine, without biliary drainage ([2]; 3-4d, 20 mg/kg group): 100%
daily amount excreted in urine, without biliary drainage ([2]; 3-4d, 60 mg/kg group): 0.0264 mg
percentage in parentheses, urine, without biliary drainage ([2]; 3-4d, 60 mg/kg group): 100%
